Source: ChEMBL document CHEMBL6153035, “Natural and Semisynthetic Immunomodulatory Luakuliide Labdane Diterpenoids” (J Nat Prod, 2025)
Calls of active or inactive are those of the source. The calls are words filed in the database; no cut-off is given here.

Key:
[1] = Cytotoxicity against LPS-stimulated mouse BMDM cells assessed as changes in cellular metabolism at 1 to 100 nM for 8 hrs by MTT assay; type: toxicity, cell-based; conditions: 0.1 µM, dose 1-100 nM
[2] = test system: RAW264.7; test: Antiinflammatory activity against LPS-stimulated mouse RAW264.7 cells assessed as reduction in TNF production at 1 to 1000 nM preincubated with compound for 8 hrs followed by LPS-induction and measured after 48 hrs by ELISA based assay; type: functional, cell-based; conditions: dose 1-1000 nM, time 56.0 hrs
[3] = test system: RAW264.7; test: Cytotoxicity against LPS-stimulated mouse RAW264.7 cells assessed as reduction in cellular metabolism at 10 uM incubated for 8 hrs by MTT assay; type: toxicity, cell-based; conditions: raw264.7, 8 h
[4] = test system: BMDM; test: Antiinflammatory activity against IFN-gamma and LPS-stimulated mouse BMDM cells assessed as reduction in IL-12 production at 1 to 100 nM primed with 20 U/mL of IFN-gamma followed by 200 ng/mL of LPS stimulation in presence of compound for 48 hrs by ELISA assay; type: functional, cell-based; conditions: dose 1-100 nM
[5] = test system: BMDM; test: Antiinflammatory activity against LPS-stimulated mouse BMDM cells assessed as induction of TNF production at 1 to 100 nM preincubated with compound for 8 hrs followed by LPS-induction and measured after 48 hrs by ELISA assay; type: functional, cell-based; conditions: dose 1-100 nM, time 56.0 hrs
[6] = test system: BMDM; test: Antiinflammatory activity against LPS-stimulated mouse BMDM cells assessed as reduction IL-6 production at 1 to 100 nM preincubated with compound for 8 hrs followed by LPS-induction and measured after 48 hrs by ELISA assay; type: functional, cell-based; conditions: dose 1-100 nM, time 56.0 hrs
[7] = test system: RAW264.7; test: Cytotoxicity against LPS-stimulated mouse RAW264.7 cells assessed as reduction in cellular metabolism at 3.2 uM incubated for 8 hrs by MTT assay; type: toxicity, cell-based; conditions: raw264.7, 8 h
[8] = test system: BMDM; test: Antiinflammatory activity against IFN-gamma and LPS-stimulated mouse BMDM cells assessed as reduction in IL-6 production at 1 to 100 nM primed with 20 U/mL of IFN-gamma followed by 200 ng/mL of LPS stimulation in presence of compound for 48 hrs by ELISA assay; type: functional, cell-based; conditions: dose 1-100 nM
[9] = Cytotoxicity against LPS-stimulated mouse BMDM cells assessed as reduction in cellular metabolism at 1 to 100 nM incubated for 8 hrs in presence of 500 ng/mL of LPS-stimulation by MTT assay; type: toxicity, cell-based; conditions: 0.1 µM, dose 1-100 nM
[10] = test system: BMDM; test: Antiinflammatory activity against LPS-stimulated mouse BMDM cells assessed as reduction in IL-6 production at 10 to 100 nM preincubated with compound for 8 hrs followed by LPS-induction and measured after 48 hrs by ELISA assay; type: functional, cell-based; conditions: dose 10-100 nM, time 56.0 hrs
[11] = Cytotoxicity against IFN-gamma/LPS-stimulated mouse BMDM cells assessed as changes in cellular metabolism at 1 to 100 nM primed with 20 U/mL of IFN-gamma followed by 200 ng/mL of LPS stimulation in presence of compound at 1 to 100 nM for 48 hrs by MTT assay; type: toxicity, cell-based; conditions: 0.1 µM, dose 1-100 nM
[12] = test system: BMDM; test: Antiinflammatory activity against IFN-gamma and LPS-stimulated mouse BMDM cells assessed as change in IL-10 secretion at 1 to 100 nM primed with 20 U/mL of IFN-gamma followed by 200 ng/mL of LPS stimulation in presence of compound for 48 hour by ELISA assay; type: functional, cell-based; conditions: dose 1-100 nM
[13] = test system: BMDM; test: Antiinflammatory activity against IFN-gamma and LPS-stimulated mouse BMDM cells assessed as change in NO production at 1 to 100 nM primed with 20 U/mL of IFN-gamma followed by 200 ng/mL of LPS stimulation in presence of compound for 48 hrs by […] assay; type: functional, cell-based; conditions: dose 1-100 nM
[14] = test system: BMDM; test: Antiinflammatory activity against LPS-stimulated mouse BMDM cells assessed as reduction in TNF production preincubated with compound for 8 hrs followed by LPS-induction and measured after 48 hrs by ELISA assay; type: functional, cell-based; conditions: dose 1-100 nM, time 56.0 hrs
[15] = test system: RAW264.7; test: Cytotoxicity against LPS-stimulated mouse RAW264.7 cells assessed as changes in cellular metabolism at 1 to 10000 nM incubated for 8 hrs by MTT assay; type: toxicity, cell-based; conditions: raw264.7, 8 h, 10 µM, dose 1-10000 nM
[16] = test system: BMDM; test: Antiinflammatory activity against LPS-stimulated mouse BMDM cells assessed as reduction in IL-6 production at 1 to 100 nM preincubated with compound for 8 hrs followed by LPS-induction and measured after 48 hrs by ELISA assay; type: functional, cell-based; conditions: dose 1-100 nM, time 56.0 hrs
[17] = test system: BMDM; test: Antiinflammatory activity against LPS-stimulated mouse BMDM cells assessed as reduction in TNF production at 1 to 100 nM preincubated with compound for 8 hrs followed by LPS-induction and measured after 48 hrs by ELISA assay; type: functional, cell-based; conditions: dose 1-100 nM, time 56.0 hrs

Compound | Activity [1] | Activity [2] | Activity [3] | Activity [4] | Activity [5] | Activity [6] | Activity [7] | Activity [8] | Activity [9] | Activity [10] | Activity [11] | Activity [12] | Activity [13] | Activity [14] | Activity [15] | Activity [16] | Activity [17]
CC1=CC[C@H]2C(C)(C)CCC[C@]2(C=O)[C@H]1CCc1ccoc1 | Non-toxic | inactive | Toxic | inactive | Active | inactive | Toxic | inactive | Toxic | – | – | – | – | – | – | – | –
CC1=C(CCc2ccoc2)[C@@]2(C=O)CCCC(C)(C)[C@@H]2CC1 | Non-toxic | inactive | Toxic | inactive | Active | – | Toxic | inactive | Toxic | Active | – | – | – | – | – | – | –
CC(=O)O[C@@H]1O[C@@]2(C)CC[C@H]3C(C)(C)CCC[C@@]13[C@H]2CCc1ccoc1 | – | Active | Toxic | – | – | – | Toxic | – | – | – | – | – | – | – | – | – | –
CO[C@@H]1O[C@@]2(C)CC[C@H]3C(C)(C)CCC[C@@]13[C@H]2CCC1=CCOC1=O | Non-toxic | inactive | Toxic | Active | Active | – | – | Active | Toxic | – | Toxic | Active | inactive | – | – | – | –
CC1=C(CCc2cc(Br)oc2Br)[C@@]2(C=O)CCCC(C)(C)[C@@H]2CC1 | Non-toxic | inactive | Toxic | Active | – | inactive | Toxic | Active | – | – | Toxic | Active | inactive | Dose-dependent-effect | – | – | –
CC1(C)CCC[C@@]23[C@H](O)O[C@@](C)(CC[C@@H]12)[C@@H]3CCc1ccoc1 | Non-toxic | inactive | – | – | Active | – | – | – | Toxic | – | – | – | – | – | Non-toxic | – | –
CC1=C(CCC2=CCOC2=O)[C@@]2(C=O)CCCC(C)(C)[C@@H]2CC1 | Non-toxic | inactive | Toxic | Active | – | – | – | Active | Toxic | Active | Toxic | Active | inactive | – | – | – | –
CC1(C)CCC[C@@]23[C@H](O)O[C@@](C)(CC[C@@H]12)[C@@H]3CCC1=CCN(CC(=O)O)C1=O | Non-toxic | Active | Toxic | – | – | – | – | – | – | – | – | – | – | – | – | Active | Active
